The values that follow are results of earlier work, collected in patent US6369115B1, “Stabilized powder formulations” (Dura Pharmaceuticals, Inc., priority 2000, dated 2002).

Regarding `CCC(=O)O[C@]1(C(=O)SCF)[C@H](C)C[C@H]2[C@@H]3C[C@H](F)C4=CC(=O)C=C[C@]4(C)[C@@]3(F)[C@@H](O)C[C@@]21C` [fluticasone propionate, (6 alpha, 11 beta, 16 alpha, 17 alpha)-6,9,-difluoro-11-hydroxy-16-methyl-3-oxo-17-(1-oxopropoxy)androsta-1,4-diene-17-carbothioic acid, S-fluoromethyl ester], the solubility in water entry is “insoluble in water”.

Consider `COc1ccc(CC(C)NCC(O)c2ccc(O)c(NC=O)c2)cc1` (centres unmarked) [Formoterol, N-[2-hydroxy-5-[1-hydroxy-2-[[2-(4-methoxyphenyl)-1-methylethyl]amino]ethyl]phenyl]formamide], for which the solubility in water entry is “soluble in water”.
